Key:
MCF7 [1] = test: Induction of apoptosis in human MCF7 cells assessed as viable cells at 34 uM after 4 hrs by FITC Annexin-V/propidium iodide staining-based flow cytometry (reference value: 70.40%); assay type: functional; conditions: MCF7, 4 h, read-out: Activity
LoVo [2] = test: Cytotoxicity against human LoVo cells after 14 hrs by CCK-8 assay; assay type: functional, cell-based
HeLa [3] = test: Induction of apoptosis in human HeLa cells assessed as apoptotic cells at 69 uM after 4 hrs by FITC Annexin-V/propidium iodide staining-based flow cytometry (reference value: 13.00%); assay type: functional
A549 [4] = test: Induction of apoptosis in human A549 cells assessed as viable cells at 69 uM after 4 hrs by FITC Annexin-V/propidium iodide staining-based flow cytometry (reference value: 84.40%); assay type: functional; conditions: A549, 4 h, read-out: Activity
[5] = Cytotoxicity against human PNT2 cells at 8.6 to 2200 uM after 14 hrs by CCK-8 assay; assay type: cell-based; conditions: pnt2, 14 h
A549 [6] = test: Cytotoxicity against human A549 cells after 14 hrs by CCK-8 assay; assay type: functional, cell-based; conditions: A549, 14 h
LoVo [7] = test: Induction of apoptosis in human LoVo cells assessed as apoptotic cells at 550 uM after 4 hrs by FITC Annexin-V/propidium iodide staining-based flow cytometry (reference value: 20.50%); assay type: functional
MCF7 [8] = test: Cytotoxicity against human MCF7 cells after 14 hrs by CCK-8 assay; assay type: functional, cell-based; conditions: MCF7, 14 h
HeLa [9] = test: Induction of apoptosis in human HeLa cells assessed as viable cells at 550 uM after 4 hrs by FITC Annexin-V/propidium iodide staining-based flow cytometry (reference value: 87.00%); assay type: functional; conditions: read-out: Activity
MCF7 [10] = test: Induction of apoptosis in human MCF7 cells assessed as viable cells at 275 uM after 4 hrs by FITC Annexin-V/propidium iodide staining-based flow cytometry (reference value: 70.40%); assay type: functional; conditions: MCF7, 4 h, read-out: Activity
A549 [11] = test: Induction of apoptosis in human A549 cells assessed as apoptotic cells at 69 uM after 4 hrs by FITC Annexin-V/propidium iodide staining-based flow cytometry (reference value: 15.60%); assay type: functional
LoVo [12] = test: Induction of apoptosis in human LoVo cells assessed as apoptotic cells at 69 uM after 4 hrs by FITC Annexin-V/propidium iodide staining-based flow cytometry (reference value: 20.50%); assay type: functional
A549 [13] = test: Induction of apoptosis in human A549 cells assessed as apoptotic cells at 550 uM after 4 hrs by FITC Annexin-V/propidium iodide staining-based flow cytometry (reference value: 15.60%); assay type: functional
MCF7 [14] = test: Induction of apoptosis in human MCF7 cells assessed as apoptotic cells at 275 uM after 4 hrs by FITC Annexin-V/propidium iodide staining-based flow cytometry (reference value: 29.60%); assay type: functional
MCF7 [15] = test: Induction of apoptosis in human MCF7 cells assessed as apoptotic cells at 34 uM after 4 hrs by FITC Annexin-V/propidium iodide staining-based flow cytometry (reference value: 29.60%); assay type: functional
HeLa [16] = test: Induction of apoptosis in human HeLa cells assessed as viable cells at 69 uM after 4 hrs by FITC Annexin-V/propidium iodide staining-based flow cytometry (reference value: 87.00%); assay type: functional; conditions: read-out: Activity
LoVo [17] = test: Induction of apoptosis in human LoVo cells assessed as viable cells at 550 uM after 4 hrs by FITC Annexin-V/propidium iodide staining-based flow cytometry (reference value: 79.50%); assay type: functional; conditions: read-out: Activity
HeLa [18] = test: Induction of apoptosis in human HeLa cells assessed as apoptotic cells at 550 uM after 4 hrs by FITC Annexin-V/propidium iodide staining-based flow cytometry (reference value: 13.00%); assay type: functional
[19] = Lipophilicity, log P of the compound; assay type: physicochemical; conditions: octanol/water
LoVo [20] = test: Induction of apoptosis in human LoVo cells assessed as viable cells at 69 uM after 4 hrs by FITC Annexin-V/propidium iodide staining-based flow cytometry (reference value: 79.50%); assay type: functional; conditions: read-out: Activity
A549 [21] = test: Induction of apoptosis in human A549 cells assessed as viable cells at 550 uM after 4 hrs by FITC Annexin-V/propidium iodide staining-based flow cytometry (reference value: 84.40%); assay type: functional; conditions: A549, 4 h, read-out: Activity
HeLa [22] = test: Cytotoxicity against human HeLa cells after 14 hrs by CCK-8 assay; assay type: functional, cell-based
LoVo [23] = test: Induction of apoptosis in human LoVo cells assessed as apoptotic cells at 34 uM after 4 hrs by FITC Annexin-V/propidium iodide staining-based flow cytometry (reference value: 20.50%); assay type: functional
A549 [24] = test: Induction of apoptosis in human A549 cells assessed as apoptotic cells at 137 uM after 4 hrs by FITC Annexin-V/propidium iodide staining-based flow cytometry (reference value: 15.60%); assay type: functional
LoVo [25] = test: Induction of apoptosis in human LoVo cells assessed as apoptotic cells at 275 uM after 4 hrs by FITC Annexin-V/propidium iodide staining-based flow cytometry (reference value: 20.50%); assay type: functional
A549 [26] = test: Induction of apoptosis in human A549 cells assessed as viable cells at 17 uM after 4 hrs by FITC Annexin-V/propidium iodide staining-based flow cytometry (reference value: 84.40%); assay type: functional; conditions: A549, 4 h, read-out: Activity
LoVo [27] = test: Induction of apoptosis in human LoVo cells assessed as viable cells at 275 uM after 4 hrs by FITC Annexin-V/propidium iodide staining-based flow cytometry (reference value: 79.50%); assay type: functional; conditions: read-out: Activity
HeLa [28] = test: Induction of apoptosis in human HeLa cells assessed as apoptotic cells at 17 uM after 4 hrs by FITC Annexin-V/propidium iodide staining-based flow cytometry (reference value: 13.00%); assay type: functional
HeLa [29] = test: Induction of apoptosis in human HeLa cells assessed as viable cells at 137 uM after 4 hrs by FITC Annexin-V/propidium iodide staining-based flow cytometry (reference value: 87.00%); assay type: functional; conditions: read-out: Activity
HeLa [30] = test: Induction of apoptosis in human HeLa cells assessed as apoptotic cells at 137 uM after 4 hrs by FITC Annexin-V/propidium iodide staining-based flow cytometry (reference value: 13.00%); assay type: functional
A549 [31] = test: Induction of apoptosis in human A549 cells assessed as viable cells at 137 uM after 4 hrs by FITC Annexin-V/propidium iodide staining-based flow cytometry (reference value: 84.40%); assay type: functional; conditions: A549, 4 h, read-out: Activity
HeLa [32] = test: Induction of apoptosis in human HeLa cells assessed as viable cells at 17 uM after 4 hrs by FITC Annexin-V/propidium iodide staining-based flow cytometry (reference value: 87.00%); assay type: functional; conditions: read-out: Activity
A549 [33] = test: Induction of apoptosis in human A549 cells assessed as apoptotic cells at 17 uM after 4 hrs by FITC Annexin-V/propidium iodide staining-based flow cytometry (reference value: 15.60%); assay type: functional
LoVo [34] = test: Induction of apoptosis in human LoVo cells assessed as viable cells at 34 uM after 4 hrs by FITC Annexin-V/propidium iodide staining-based flow cytometry (reference value: 79.50%); assay type: functional; conditions: read-out: Activity

O=C1C[C@H](S[C@@H]2O[C@H](CO)[C@@H](O)[C@H](O)[C@H]2O)[C@H]2CO[C@@H]1O2 showed a viability at 34 µM (MCF7 [1]) of 75.1%, an IC50 (LoVo [2]) of 772 µM and an Activity (HeLa [3]) of 17.4%. The viability at 69 µM (A549 [4]) was 70.3%, the Activity [5] was 10% and the IC50 (A549 [6]) was 692 µM. The Activity (LoVo [7]) was 37.65%, the IC50 (MCF7 [8]) was 366 µM and the viability at 550 µM (HeLa [9]) was 67.2%. For the same compound, the viability at 275 µM (MCF7 [10]) was 26.4%, the Activity (A549 [11]) was 29.7% and the Activity (LoVo [12]) was 29%. For the same compound, the Activity (A549 [13]) was 25.7%, the Activity (MCF7 [14]) was 73.6% and the Activity (MCF7 [15]) was 24.9%. It also gave a viability at 69 µM (HeLa [16]) of 82.6%, a viability at 550 µM (LoVo [17]) of 62.4% and an Activity (HeLa [18]) of 32.8%. For the same compound, the logP [19] was -2.05, the viability at 69 µM (LoVo [20]) was 71% and the viability at 550 µM (A549 [21]) was 74.3%. It also gave an IC50 (HeLa [22]) of 1080 µM.
With CC(=O)OC[C@H]1O[C@@H](S[C@H]2CC(=O)[C@@H]3OC[C@H]2O3)[C@H](OC(C)=O)[C@@H](OC(C)=O)[C@H]1OC(C)=O the viability at 34 µM (MCF7 [1]) was 57.8%, the Activity (LoVo [23]) was 34.9% and the Activity (A549 [24]) was 21.9%. The Activity (LoVo [25]) was 30%, the viability at 17 µM (A549 [26]) was 71% and the IC50 (LoVo [2]) was 624 µM. For the same compound, the viability at 275 µM (LoVo [27]) was 70%, the Activity (HeLa [28]) was 25.9% and the Activity [5] was 10%. For the same compound, the viability at 137 µM (HeLa [29]) was 37.2%, the IC50 (A549 [6]) was 467 µM and the IC50 (MCF7 [8]) was 344 µM. For the same compound, the Activity (HeLa [30]) was 62.8%, the viability at 137 µM (A549 [31]) was 78.1% and the viability at 275 µM (MCF7 [10]) was 80.8%. For the same compound, the Activity (MCF7 [14]) was 19.2%, the Activity (MCF7 [15]) was 42.2% and the viability at 17 µM (HeLa [32]) was 74.1%. For the same compound, the logP [19] was -1.13, the Activity (A549 [33]) was 29% and the IC50 (HeLa [22]) was 676 µM. It also gave a viability at 34 µM (LoVo [34]) of 65.1%.
